Measurements from patent US6392055B1, “Synthesis and biological evaluation of analogs of the antimitotic marine natural product curacin A” (The University of Pittsburgh, priority 2000, dated 2002).
Like-named read-outs stand apart in the source and are kept apart here.

Key:
[1] = system: isolated bovine brain tubulin; assay: Inhibition of GTP/glutamate-induced tubulin polymerization (turbidimetric, 30° C.); type: biochemical; conditions: for % TPI 5 μM / Percent Tubulin Polymerization Inhibition (TPI), 5 μM: 5 μM compound
MDA-MB231 cells = assay: Growth inhibition of breast carcinoma cells (MTS); type: cell-based, human
PC-3 cells = assay: Growth inhibition of prostate carcinoma cells (MTS); type: cell-based, human
[2] = system: tubulin (colchicine site); assay: Inhibition of [3H]colchicine binding to tubulin; set-up: species or system bovine; conditions: for % CBI 5 μM, (30° C.) / % CBI 50 μM, (30° C.): 30° C. (values in parentheses); for displacement of pre-bound [3H]colchicine from tubulin, 30° C. / displacement of pre-bound [3H]colchicine from tubulin, 37° C.: equimolar (5 μM) concentration; for IC50: 5 μM [3H]colchicine, 1 μM tubulin
Protocol: Assays to determine whether 15mix-17mix inhibited binding of [^3H]colchicine to tubulin at both 30° C. and 37° C. were performed. This was accomplished using methods described previously. Kang, G.-J.; Getahun, Z.; Muzaffar, A.; Brossi, A.; Hamel, E. J. Biol. Chem. 1990, 265, 10255; Verdier-Pinard, P.; Lai, J.-Y.; Yoo, H.-D.; Yu, J.; Marquez, B.; Nagle, D. G.; Nambu, M.; White, J. D.; Falck, J. R.; Gerwick, W. H.; Day, B. W.; Hamel, E. Mol. Pharmacol. 1998, 53, 62. Briefly, 5 μM [^3H]colchicine (2.3 TBq/mmol), drug (1, 5, 10, 50, or 250 μM), or vehicle (DMSO, 5% v/v) were incubated at 30° C. for 15 minutes or at 37° C. for 10 minutes with 1 μM tubulin in the presence of 1 M monosodium glutamate, 0.1 M glucose-1-phosphate, 1 mM MgCl2, 1 mM GTP, and 0.5 mg/mL bovine serum albumin. The solutions were filtered through two stacks of DEAE-cellulose filters and the radioactivity in the filtrate was determined by scintillation spectrometry. Each series of determinations included positive controls of 1, 5, and/or 50 μM curacin A.

2008 cells = assay: Growth inhibition of ovarian carcinoma cells (MTS); type: cell-based, human
[3] = 96 h, read-out: GI50 MDA-MB231 (breast) 96 h
[4] = read-out: GI50 MDA-MB231 (breast) 48 h, 48 h
[5] = 96 h, read-out: GI50 PC3 (prostate) 96 h
[6] = read-out: GI50 PC3 (prostate) 48 h, 48 h
[7] = 96 h, read-out: GI50 2008 (ovarian) 96 h
[8] = read-out: GI50 2008 (ovarian) 48 h, 48 h
[9] = 96 h, Table II prints no unit, read-out: GI50 MDA 96 h
[10] = read-out: GI50 MDA 48 h, 48 h, Table II prints no unit
[11] = 96 h, Table II prints no unit, read-out: GI50 PC3 96 h
[12] = read-out: GI50 PC3 48 h, 48 h, Table II prints no unit
[13] = 96 h, Table II prints no unit, read-out: GI50 2008 96 h
[14] = read-out: GI50 2008 48 h, 48 h, Table II prints no unit
[15] = 30° C. turbidimetric assay, N=2 over 4 concentrations, read-out: IC50, inhibition of GTP/glutamate-induced assembly of tubulin
[16] = read-out: GI50 breast (MDA-MB231), 48 hours of continuous drug exposure, 48 hours continuous exposure
[17] = read-out: GI50 prostate (PC3), 48 hours of continuous drug exposure, 48 hours continuous exposure
[18] = read-out: GI50 ovarian (2008), 48 hours of continuous drug exposure, 48 hours continuous exposure

Compound	% TPI 5 μM [1] [%]	GI50 (MDA-MB231 cells; [3]) [nM]	GI50 (MDA-MB231 cells; [4]) [nM]	GI50 (PC-3 cells; [5]) [nM]	GI50 (PC-3 cells; [6]) [nM]	% CBI 5 μM, (30° C.) ([2]; 5 μM compound)	% CBI 5 μM, 37° C. ([2]; 5 μM compound) [%]	% CBI 50 μM, (30° C.) ([2]; 50 μM compound)	% CBI 50 μM, 37° C. ([2]; 50 μM compound) [%]	GI50 (2008 cells; [7]) [nM]	GI50 (2008 cells; [8]) [nM]	Percent Tubulin Polymerization Inhibition (TPI), 5 μM [1] [%]	GI50 (MDA-MB231 cells; [9]) [nM]	GI50 (MDA-MB231 cells; [10]) [nM]	GI50 (PC-3 cells; [11]) [nM]	GI50 (PC-3 cells; [12]) [nM]	Percent Colchicine Binding Inhibition (CBI), 5 μM ([2]; 5 μM compound) [%]	Percent Colchicine Binding Inhibition (CBI), 50 μM ([2]; 50 μM compound) [%]	GI50 (2008 cells; [13]) [nM]	GI50 (2008 cells; [14]) [nM]	other results
C=CC[C@@H](CC[C@@]1(C)C[C@H]1[C@H]1C[C@@H]1CC/C=C\[C@@H]1CSC([C@@H]2C[C@@H]2C)=N1)OC [JR DCCA]	0	> 50000	> 50000	> 50000	> 50000	(9 ± 5) %	−39 ± 7	(−12 ± 9) %	−62 ± 5	> 50000	> 50000	–	–	–	–	–	–	–	–	–	–
COc1cc(/C=C\CC/C=C/C=C(\C)CCC(O)c2cc3ccccc3o2)cc(OC)c1OC (centres unmarked) [Compound 19CR3]	–	–	–	–	–	–	–	–	–	–	–	>100	214 ± 51	151 ± 51	1020 ± 380	366 ± 157	9.9 ± 3.0	59.0 ± 7.5	279 ± 30	311 ± 63	–
COc1cc(/C=N\OC/C=C/C=C(\C)CCC(O)c2cccs2)cc(OC)c1OC (centres unmarked) [JRoxime1]	100	380 ± 200	120 ± 100	530 ± 390	250	(48 ± 12) %	53 ± 2.2	(57 ± 15) %	37 ± 8	340 ± 290	240 ± 180	–	–	–	–	–	–	–	–	–	IC50 [1, 15]: 170 ± 90 nM; GI50 (MDA-MB231 cells; [16]): 120 ± 100 nM; GI50 (PC-3 cells; [17]): 250 ± 80 nM; displacement of pre-bound [3H]colchicine from tubulin, 30° C. [2]: 48±12%; displacement of pre-bound [3H]colchicine from tubulin, 37° C. [2]: 53±2%; GI50 (2008 cells; [18]): 240 ± 180 nM
COc1cc(C=NOCC2CC2CCC(C)c2cccs2)cc(OC)c1OC (centres unmarked) [JRoxime3]	3	> 50000	> 50000	> 50000	> 50000	(−10 ± 10) %	−30 ± 6	(18 ± 6) %	−30 ± 7	> 50000	> 50000	–	–	–	–	–	–	–	–	–	–
C=CC[C@@H](CC/C(C)=C/C=C/CC/C=C\[C@@H]1CSC(C(C)(C)C)=N1)OC [JRC3]	100	270 ± 160	200 ± 110	61 ± 59	130 ± 80	(35 ± 4) %	−35 ± 15	(63 ± 6) %	13 ± 12	180 ± 110	220 ± 90	–	–	–	–	–	–	–	–	–	–
C=CCC(CCC(C)=CC=CCCC=CC1COC(C=Cc2ccccc2)=N1)OC (centres unmarked) [JRC5]	29	5800 ± 3600	14000 ± 3000	28000 ± 1000	30000 ± 6000	(9 ± 6) %	1 ± 12	(−220 ± 16) %	−89 ± 7	23000 ± 2000	17000 ± 3000	–	–	–	–	–	–	–	–	–	–
C=CC[C@@H](CC/C(C)=C/C=C/CC/C=C\[C@@H]1CSC([C@@H]2C[C@@H]2C)=N1)OC [curacin A]	98	–	–	–	–	(78 ± 2) %	87 ± 9	(99 ± 1) %	97 ± 0	–	–	97.9	64 ± 7	186 ± 226	48 ± 8	50 ± 9	84.9 ± 1.07	96.2 ± 0.7	26 ± 12	35 ± 7	IC50 [1, 15]: 520 ± 210 nM; IC50 ([1]; read-out: 50% Tubulin Polymerization Inhibition Concentration (TPI) IC50, 30° C., 10 μM tubulin): 780 ± 70 nM; GI50 (MDA-MB231 cells; read-out: GI50 MDA-MB231 (48 h), 48 h): 96 ± 60 nM; GI50 (MDA-MB231 cells; [16]): 96 ± 60 nM; GI50 (PC-3 cells; read-out: GI50 PC-3 (48 h), 48 h): 50 ± 9 nM; GI50 (PC-3 cells; [17]): 50 ± 9 nM; Percent Colchicine Binding Inhibition (CBI), 5 μM, re-test value ([2]; 5 μM compound, re-test (in parentheses)): (95.0 ± 0.7*) %; Percent Colchicine Binding Inhibition (CBI), 50 μM, re-test value ([2]; 50 μM compound, re-test (in parentheses)): (97.7 ± 0.0*) %; displacement of pre-bound [3H]colchicine from tubulin, 30° C. [2]: 78±2%; displacement of pre-bound [3H]colchicine from tubulin, 37° C. [2]: 87±9%; IC50 ([2]; incubation at 30° C. for 15 minutes, read-out: 50% Colchicine Binding Inhibitory Concentration (CBI), 30° C.): 900 ± 300 nM; IC50 ([2]; incubation at 37° C. for 10 minutes, read-out: 50% Colchicine Binding Inhibitory Concentration (CBI), 37° C.): 600 ± 100 nM; GI50 (2008 cells; read-out: GI50 2008 (48 h), 48 h): 35 ± 7 nM; GI50 (2008 cells; [18]): 35 ± 7 nM
C=CC[C@@H](CC[C@@]1(C)C[C@H]1[C@H]1C[C@@H]1CC/C=C\[C@@H]1COC([C@@H]2C[C@@H]2C)=N1)OC [JRCPOX]	83	24000	18000 ± 4000	24000 ± 1000	49000 ± 1000	(−142 ± 59) %	−8 ± 11	(−205 ± 17) %	−74 ± 19	23000 ± 1000	18000 ± 4000	–	–	–	–	–	–	–	–	–	–
COc1ccc(/C=C\CC/C=C/C=C(\C)CCC(O)c2ccco2)c(OC)c1 (centres unmarked) [Compound 19AR1]	–	–	–	–	–	–	–	–	–	–	–	81.7	3260 ± 6130	26800 ± 900	> 50000	> 50000	−2.2 ± 8.2	13.2 ± 12.7	19100 ± 3100	20200 ± 2000	Percent Colchicine Binding Inhibition (CBI), 1 μM ([2]; 1 μM compound): −4.6 ± 8.5%
COc1cc(/C=C\CC/C=C/C=C(\C)CCC(O)c2ccco2)cc(OC)c1OC (centres unmarked) [Compound 19CR1]	–	–	–	–	–	–	–	–	–	–	–	94.4	790 ± 167	288 ± 166	7730 ± 1220	7990 ± 3520	30.3 ± 7.5	59.7 ± 1.6	2530 ± 640	2720 ± 960	–
